Counter-ions that a name gives are not always drawn. One block for each compound: values may come before it.
What was measured:
[1] = Table 13; versus 79.7 cP with no excipient
ustekinumab [2] = assay: Urea denaturation, Sypro orange fluorescence (Example 44); format: physicochemical; conditions: excipient 5 mg/mL, ustekinumab 1 mg/mL, 6M urea, 20 mM histidine pH 6.0, Sypro orange fluorescence
Source text: It is known that urea denatures proteins in solution and causes them to unfold. The screening methodology in this example involved adding a specific concentration of urea to a therapeutic protein solution such as ustekinumab. […] One method to track protein unfolding involves the use of extrinsic fluorescent dyes such as Sypro orange. Sypro orange binds to hydrophobic regions in the unfolded protein structure, leading to an increase in the fluorescence signal observed. Measuring the differences in the fluorescence intensity of unfolded protein-Sypro orange complex in presence of different excipients thus allows one to identify any stabilizing effects.
All excipients used in this Example, listed in Table 45 below, were of the highest purity, and were obtained from Sigma Aldrich (St. Louis, MO) or Cayman Chemical (Ann Arbor, MI). […] This urea stock solution was then added to a final concentration of 6M to produce the test solutions (excipient plus protein plus urea). […] The pH of the mixture was rechecked and confirmed to be at pH 6.0. The test solutions were allowed to incubate at room temperature for 30 min.

ustekinumab [3] = assay: Thermal stability at 65° C., monomer by SE-HPLC (Example 46); format: physicochemical; conditions: excipient 5 mg/mL, ustekinumab 1 mg/mL, 20 mM histidine pH 6.0, incubated at 65° C.
Source text: Therapeutic proteins are frequently subjected to fluctuations in temperatures which may lead to changes in tertiary and secondary structural elements. This can lead to aggregation of the protein and decrease the amount of active native protein. […] All excipients used in this Example, listed in Table 47 below, were of the highest purity, and were obtained from Sigma Aldrich (St. Louis, MO) or Cayman Chemical (Ann Arbor, MI).

ustekinumab [4] = assay: Stabilization at low pH, Sypro orange fluorescence (Example 45); conditions: excipient 5 mg/mL, ustekinumab 1 mg/mL, glycine acidification buffer pH 2.6, Sypro orange fluorescence
ustekinumab [5] = assay: Thermal stability at 65 deg C., increase in percent monomer by SE-HPLC (Example 55); format: physicochemical; conditions: excipient 5 mg/mL, ustekinumab 1 mg/mL, 20 mM Histidine pH 6.0, 65 deg C., 120 min
Source text: Therapeutic proteins are frequently subjected to fluctuations in temperatures, which may lead to changes in their tertiary and secondary structural elements. This leads to aggregation of the protein and a decrease in the active native species.

ustekinumab-FITC [6] = assay: Thermal stability of model ADC at 65° C. by SE-HPLC (Example 56); conditions: excipient 5 mg/mL, ustekinumab-FITC 1 mg/mL, 20 mM Histidine pH 6.0, 65° C.
omalizumab [7] = assay: Freeze-thaw stability, light scattering at 350 nm (Example 48); format: physicochemical; conditions: excipient 5 mg/mL, omalizumab 5 mg/mL, 20 mM histidine pH 6.0, at least 5 freeze (−80° C.)/thaw cycles
omalizumab [8] = assay: Freeze/thaw stress (6 cycles), monomer by SE-HPLC (Example 57); format: physicochemical; conditions: excipient 100 mM, omalizumab 2 mg/mL, 20 mM Histidine pH 6.0, freeze (−80° C.)/thaw
Protocol: Therapeutic proteins are frequently kept at low temperatures to improve their kinetic stability and minimize structural perturbations that could lead to the aggregation of the protein and a decrease in the active native species. In certain cases, this might be done by freezing the formulation until use. However, the low temperatures, concentration gradients, and ice formation during repeated freezing and thawing can stress the protein. […] The formulations were then aliquoted into 0.5 mL cryovials and frozen at −80° C. for 120 min. The samples were then thawed using a water bath kept at room temperature.

omalizumab [9] = assay: Mechanical shear stress (agitation 72 h), absorbance at 350 nm (Example 47); format: physicochemical; conditions: excipient 0.5 mg/mL, omalizumab 2 mg/mL, 22° C., 72 h agitation at 300 rpm
ustekinumab [10] = assay: Accelerated aging at 40° C. for 4 weeks, monomer by SE-HPLC (Example 58); format: physicochemical; conditions: excipient 100 mM, ustekinumab 2 mg/mL, 20 mM Histidine pH 6.0, 40° C. for 4 weeks
Protocol: 1 mL of each sample was aliquoted into 2 mL glass vials (West Pharmaceutical services, PA) and incubated at 40° C. for 4 weeks. The aliquots were withdrawn after 0, 1, 2, 3, and 4 weeks.

[11] = Caffeine solubility testing with co-solutes at ambient temperature (Examples 31-32); conditions: with co-solute
Protocol: Prepared solutions were used either neat or diluted with deionized water.
A small magnetic stir bar was added to the vial, and the solution was allowed to mix vigorously on a stir plate for about 10 minutes.

ustekinumab-FITC [12] = assay: Mechanical shear stability of ustekinumab-FITC, particle radius by DLS (Example 60); conditions: ustekinumab-FITC 1 mg/mL, 20 mM histidine pH 6, 300 rpm 72 h 23° C.
[13] = tested on: bovine gamma globulin (BGG); assay: Normalized viscosity of BGG with caffeine and a secondary excipient (Example 40); format: physicochemical; conditions: Excipient A caffeine 15 mg/mL + Excipient B 14 mg/mL; BGG about 280 mg/mL, 20 mM histidine pH 6, 25° C.
infliximab = assay: Thermal degradation assay at 55° C., normalized monomer loss rate by HP-SEC (Example 51); format: physicochemical; conditions: infliximab about 2 mg/mL, 20 mM phosphate pH 7, 55° C.
Protocol: ® infliximab was obtained from the Clinigen Group and reconstituted according to the instructions in the Janssen package insert, resulting in a 10 mg/mL infliximab solution in 5 mM phosphate buffer, pH about 7, with 50 mg/mL sucrose and 0.05 mg/mL polysorbate 80. The reconstituted drug product was then combined 1:1 by volume with 50 mM sodium acetate buffer at pH 5. The resulting solution was then injected onto a small preparative scale cation exchange column (GE Healthcare, Chicago, IL). After the infliximab was loaded onto the column, the column was washed with 10 column volumes of 50 mM sodium acetate buffer, pH 5. The infliximab was then eluted from the column with five column volumes of a 250 mM sodium chloride, 50 mM sodium acetate buffer at pH 5. […] Stock solutions of either 4 or 8 mg/mL infliximab in 20 mM phosphate buffer at pH 7 were then used in subsequent tests.
All excipients used in this Example, listed in Table 52 below, were of the highest purity, and were obtained from Sigma Aldrich (St. Louis, MO) or Cayman Chemical (Ann Arbor, MI). The stock infliximab solutions were mixed with stock excipient solutions containing the excipients listed in Table 52 formulated in 20 mM phosphate buffer, pH 7 to achieve a final infliximab concentration of about 2 mg/mL in each sample. The samples containing the infliximab solutions and the stock excipient solutions were then aliquoted into five 100 μL aliquots in PCR tubes. […] These stressed samples were then analyzed for monomer content by high performance size exclusion chromatography (HP-SEC) using an Agilent 1100 series HPLC equipped with a diode array detector monitoring absorbance at 280 nm. […] For each sample, the monomer peak area was divided by the monomer peak area obtained from an identical but unstressed sample to obtain the percent monomer remaining after exposure to thermal stress. The remaining monomer as a percentage of the unstressed sample was then plotted as a function of incubation time and the absolute value of the slope of a linear fit to the data was recorded as the monomer loss rate.

% decrease of A350 signal vs. control (omalizumab [9]): 69.0%
Compound: C[C@]1(OC(=O)/C=C/c2ccccc2)C[C@@H](O)[C@]2(O)C=CO[C@@H](O[C@@H]3O[C@H](CO)[C@@H](O)[C@H](O)[C@H]3O)[C@@H]21 [Harpagoside]

% increase in monomer content vs. control (ustekinumab [5]): 3.1%
% increase in monomer content vs. control (ustekinumab [10]): 4.4%
% increase in monomer content vs. control (ustekinumab-FITC [6]): 23.49%
Compound: CC(=O)N[C@@H]1C(O)O[C@H](CO)[C@@H](O)[C@@H]1O (some centres unmarked) [N-Acetyl Mannosamine]

% increase in monomer content vs. control (omalizumab [8]): 6.63%
Compound: CC(=O)N[C@@H]1C(O)O[C@H](CO)[C@@H](O)[C@@H]1O (some centres unmarked) [N-acetyl mannosamine]

dissolution of caffeine relative to the reported caffeine solubility limit [11]: at least about four times
Compound: CCN(CC)CCOC(=O)c1ccc(N)cc1 [Procaine HCl, reference compound]

DLS particle radius (nm) after shear test (ustekinumab-FITC [12]; excipient 8.3 mg/mL): 6.2 nm
Compound: C=C1C[C@@]23CC[C@H]4[C@@](C)(CCC[C@@]4(C)C(=O)O[C@@H]4O[C@H](CO)[C@@H](O)[C@H](O)[C@H]4O)[C@@H]2CC[C@]1(O[C@@H]1O[C@H](CO)[C@@H](O)[C@H](O)[C@H]1O)C3 [Rubusoside]

dissolution of caffeine relative to the reported caffeine solubility limit [11]: at least about four times
Compound: O=C1NS(=O)(=O)c2ccccc21.[Na] [Saccharin, Na, saccharin sodium salt]

Monomer loss rate (infliximab; excipient 200 mM): 0.0737 % mon/min
Normalized monomer loss rate (infliximab; excipient 200 mM): 0.460
Monomer loss rate (infliximab; excipient 250 mM): 0.0781 % mon/min
Normalized monomer loss rate (infliximab; excipient 250 mM): 0.488
% increase in monomer content vs. control (omalizumab [8]): 77.68%
% change in stability (ustekinumab [4]): 2.5%
Compound: OC[C@H]1O[C@H](O[C@H]2O[C@H](CO)[C@@H](O)[C@H](O)[C@H]2O)[C@H](O)[C@@H](O)[C@@H]1O [trehalose]

% decrease of A350 signal vs. control (omalizumab [9]): 73.2%
DLS particle radius (nm) after shear test (ustekinumab-FITC [12]; excipient 5 mg/mL): 6.4 nm
Compound: Madecassoside

% decrease of A350 signal vs. control (omalizumab [9]): 73.2%
DLS particle radius (nm) after shear test (ustekinumab-FITC [12]; excipient 5 mg/mL): 5.8 nm
Compound: Rebaudioside A

More lines, now with the values behind:

Compound: O=C(O)CC(O)(CC(=O)O)C(=O)O
Viscosity Reduction (%) [1]: 6.0%

Compound: Nc1ncnc2c1ncn2[C@@H]1O[C@H](CO)[C@@H](O)[C@H]1O [Adenosine]
% increased stability (ustekinumab [2]): 53.6%
Monomer Fraction % change from control (ustekinumab [3]): 8.4%
% change in stability (ustekinumab [4]): 32.2%

Compound: O=C[C@@H](O)[C@H](O)[C@H](O)[C@H](O)CO [Altrose]
% increase in monomer content vs. control (ustekinumab [5]): 2.8%
% increase in monomer content vs. control (ustekinumab-FITC [6]): 63.41%

Compound: OC[C@@H](O)C(O)[C@H](O)CO [Arabitol]
% increased stability (ustekinumab [2]): 2.7%
Monomer Fraction % change from control (ustekinumab [3]): 6.0%
% reduction in light scattering at 350 nm vs. control (omalizumab [7]): 17.8%
% change in stability (ustekinumab [4]): 3.4%

Compound: O=C1O[C@@H]([C@H](O)CO)[C@@H](O)[C@H]1O [Gulonolactone]
% increase in monomer content vs. control (ustekinumab [5]): 2.6%
% increase in monomer content vs. control (omalizumab [8]): 10.02%
% increase in monomer content vs. control (ustekinumab-FITC [6]): 79.95%

Compound: OC[C@H]1O[C@@](CO)(O[C@H]2O[C@H](CO)[C@@H](O)[C@H](O)[C@H]2O)[C@@H](O[C@H]2O[C@H](CO)[C@@H](O)[C@H](O)[C@H]2O)[C@@H]1O [Melzitose]
% increased stability (ustekinumab [2]): 4.7%
Monomer Fraction % change from control (ustekinumab [3]): 2.0%
% change in stability (ustekinumab [4]): 2.0%

Compound: C[C@H](CC[C@@H](O[C@@H]1O[C@H](CO[C@@H]2O[C@H](CO)[C@@H](O)[C@H](O)[C@H]2O)[C@@H](O)[C@H](O)[C@H]1O[C@@H]1O[C@H](CO)[C@@H](O)[C@H](O)[C@H]1O)C(C)(C)O)[C@H]1CC[C@@]2(C)[C@@H]3CC=C4[C@@H](CC[C@H](O[C@@H]5O[C@H](CO[C@@H]6O[C@H](CO)[C@@H](O)[C@H](O)[C@H]6O)[C@@H](O)[C@H](O)[C@H]5O)C4(C)C)[C@]3(C)[C@H](O)C[C@]12C [Mogroside V]
% decrease of A350 signal vs. control (omalizumab [9]): 68.2%

Compound: O=P([O-])([O-])[O-].[K+].[K+].[K+] [Potassium phosphate, potassium phosphate tribasic]
Viscosity Reduction (%) [1]: 9.3%

Compound: O=C(CO)[C@@H](O)[C@H](O)[C@H](O)[C@H](O)CO [Sedoheptulose]
% increased stability (ustekinumab [2]): 3.7%
Monomer Fraction % change from control (ustekinumab [3]): 3.4%
% increase in monomer content vs. control (ustekinumab [5]): 4.1%
% increase in monomer content vs. control (omalizumab [8]): 11.35%
% increase in monomer content vs. control (ustekinumab [10]): 7.7%
% change in stability (ustekinumab [4]): 2.6%
% increase in monomer content vs. control (ustekinumab-FITC [6]): 37.68%

Compound: O=S(=O)([O-])[O-].[Na+].[Na+] [Sodium sulfate]
Normalized Viscosity [13]: 0.78
Viscosity Reduction (%) [1]: 5.8%

Compound: O=C(CO)[C@@H](O[C@H]1O[C@H](CO)[C@@H](O)[C@H](O)[C@H]1O)[C@H](O)[C@H](O)CO [Turanose]
% increase in monomer content vs. control (ustekinumab [5]): 5.8%
% increase in monomer content vs. control (omalizumab [8]): 75.99%
% increase in monomer content vs. control (ustekinumab [10]): 8.3%
% increase in monomer content vs. control (ustekinumab-FITC [6]): 48.06%

Compound: Cl.NCCc1ccc(O)cc1 [Tyramine HCl]
dissolution of caffeine relative to the reported caffeine solubility limit [11]: at least about four times

— patent US20250186600A1, “EXCIPIENT COMPOUNDS FOR PROTEIN FORMULATIONS” (Comera Life Sciences, Inc., priority 2020, published 2025)
